# Test results as given in ChEMBL document CHEMBL1201862, “PubChem BioAssay data set” (2004).
# The source made the active and inactive calls.
# What was measured:
# [1] = biological target: T1, Neuropeptide Y receptor type 2 (Homo sapiens, UniProt P49146); test: Fluorescence-based counterscreen for agonists of NPY-Y1: cell-based high-throughput dose response assay for agonists of NPY-Y2.; format: functional
# T1 sequence (P49146 whole entry): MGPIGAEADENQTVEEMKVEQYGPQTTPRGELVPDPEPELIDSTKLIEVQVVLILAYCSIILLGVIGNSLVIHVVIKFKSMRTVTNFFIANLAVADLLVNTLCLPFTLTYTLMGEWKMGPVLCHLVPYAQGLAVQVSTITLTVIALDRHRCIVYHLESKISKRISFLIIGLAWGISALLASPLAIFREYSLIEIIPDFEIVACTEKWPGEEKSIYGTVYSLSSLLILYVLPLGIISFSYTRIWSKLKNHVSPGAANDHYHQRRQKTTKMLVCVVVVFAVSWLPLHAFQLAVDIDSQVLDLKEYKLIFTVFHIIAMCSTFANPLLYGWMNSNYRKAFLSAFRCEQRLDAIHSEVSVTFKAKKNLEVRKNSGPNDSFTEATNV
# [2] = biological target: T2, Neuropeptide Y receptor type 1 (Homo sapiens, UniProt P25929); test: Fluorescence-based dose response cell-based high-throughput screening assay for potentiators or agonists of NPY-Y1.; format: functional
# T2 sequence (P25929 whole entry): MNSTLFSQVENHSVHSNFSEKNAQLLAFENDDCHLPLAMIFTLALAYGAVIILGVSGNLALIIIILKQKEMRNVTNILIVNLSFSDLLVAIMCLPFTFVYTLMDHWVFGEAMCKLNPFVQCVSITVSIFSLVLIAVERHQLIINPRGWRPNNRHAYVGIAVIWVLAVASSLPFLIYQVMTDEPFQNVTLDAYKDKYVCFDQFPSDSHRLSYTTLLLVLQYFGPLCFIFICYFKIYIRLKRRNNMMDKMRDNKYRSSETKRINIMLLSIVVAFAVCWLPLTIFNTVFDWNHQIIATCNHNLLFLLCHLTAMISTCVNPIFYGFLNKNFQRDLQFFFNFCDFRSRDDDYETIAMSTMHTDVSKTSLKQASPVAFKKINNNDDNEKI
# [3] = biological target: T3, Rac GTPase-activating protein 1 (Homo sapiens, UniProt Q9H0H5); test: blockers of MgcRacGAP-driven Rac1 GTP hydrolysis – biochemical, ADP Hunter fluorescence, primary and confirmatory, confirmation (AID 624330); format: functional
# T3 sequence (Q9H0H5 whole entry): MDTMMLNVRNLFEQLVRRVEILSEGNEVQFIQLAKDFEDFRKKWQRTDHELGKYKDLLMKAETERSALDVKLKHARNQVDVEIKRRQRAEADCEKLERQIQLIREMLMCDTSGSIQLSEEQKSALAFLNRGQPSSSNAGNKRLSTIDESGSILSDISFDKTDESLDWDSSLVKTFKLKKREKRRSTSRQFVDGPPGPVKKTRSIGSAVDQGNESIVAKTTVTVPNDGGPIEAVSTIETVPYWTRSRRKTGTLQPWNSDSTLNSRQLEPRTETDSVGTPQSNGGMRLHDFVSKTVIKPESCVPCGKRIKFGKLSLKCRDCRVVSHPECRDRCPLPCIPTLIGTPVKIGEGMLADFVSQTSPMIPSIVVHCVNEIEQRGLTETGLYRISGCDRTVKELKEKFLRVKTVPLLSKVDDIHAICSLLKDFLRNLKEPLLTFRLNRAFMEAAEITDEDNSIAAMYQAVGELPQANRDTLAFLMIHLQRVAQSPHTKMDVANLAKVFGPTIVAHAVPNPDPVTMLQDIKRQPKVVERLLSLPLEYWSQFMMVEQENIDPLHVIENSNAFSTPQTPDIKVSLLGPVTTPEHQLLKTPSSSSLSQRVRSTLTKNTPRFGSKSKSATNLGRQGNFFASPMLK
# [4] = biological target: T2, Neuropeptide Y receptor type 1; test: Fluorescence-based dose response cell-based high-throughput screening assay for agonists of NPY-Y1. [Related pubchem assays: 1697 (Screening assay (NPY-Y1 agonists).), 1359 (Screening assay (NPY-Y2 potentiators or agonists).), 1304 (Screening assay (NPY-Y1 potentiators or agonists).), 1704 (Screening assay (CNGC inhibitors).), 1791 (Summary AID.)]; format: functional
# HEK293 = test: Fluorescence-based counterscreen for potentiators or agonists of NPY-Y1: cell-based high-throughput dose response assay for inhibitors of cyclic nucleotide gated ion channel (CNGC) activity. In this assay, the parental HEK293 cell line transfected with a cyclic-nucleotide gated ion channel (CNGC)-based cAMP sensor is used to measure inhibition of isoproterenol-induced CNGC …; format: functional; settings: Homo sapiens
# [5] = biological target: T1, Neuropeptide Y receptor type 2; test: Fluorescence counterscreen for potentiators or agonists of NPY-Y1: Cell-based high-throughput dose response assay for potentiators or agonists of NPY-Y2.; format: functional
# [6] = biological target: T4, Neuropeptides B/W receptor type 1 (Homo sapiens, UniProt P48145); test: Fluorescence-based dose response cell-based high throughput screening assay to identify antagonists of the G-protein coupled receptor 7 (GPR7). [Related pubchem assays: 1952 (Screening assay (GPR7 antagonists).), 1880 (Summary AID.)]; format: functional
# T4 sequence (P48145 whole entry): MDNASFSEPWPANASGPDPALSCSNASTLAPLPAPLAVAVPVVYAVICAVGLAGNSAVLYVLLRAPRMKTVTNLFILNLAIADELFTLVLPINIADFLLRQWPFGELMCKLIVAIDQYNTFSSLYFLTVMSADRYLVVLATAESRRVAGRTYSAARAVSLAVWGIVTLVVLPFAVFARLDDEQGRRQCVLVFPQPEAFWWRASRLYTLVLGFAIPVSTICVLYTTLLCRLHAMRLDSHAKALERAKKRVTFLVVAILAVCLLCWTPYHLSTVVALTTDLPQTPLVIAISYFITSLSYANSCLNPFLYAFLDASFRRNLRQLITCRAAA
# [7] = biological target: Melanin-concentrating hormone receptor 1 (Homo sapiens, UniProt Q99705); test: Fluorescence-based counterscreen for antagonists of the G-protein coupled receptor 7 (GPR7): cell-based high throughput dose response assay to identify antagonists of the melanin-concentrating hormone receptor 1 (MCHR1).; format: functional
# Staphylococcus aureus = test: Inhibitors of Bacterial Quorum Sensing Structure Activity Relationship (SAR) Analysis: Dose Response Assay. [Related pubchem assays: 700, 527 ]; format: functional, organism-based
# [8] = biological target: T5, Eukaryotic translation initiation factor 4H (Homo sapiens, UniProt Q15056); test: eIF4H binding inhibition – biochemical, uHTS, fluorescence polarization, translation initiation inhibitor project, primary screen (AID 2012)
# [9] = biological target: DNA dC->dU-editing enzyme APOBEC-3G (Homo sapiens, UniProt Q9HC16); format: functional;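 further: Dose-response counterscreen measuring inhibition of APOBEC3G DNA deaminase activity, run while confirming APOBEC3A inhibitors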
# [10] = biological target: T6, Polyadenylate-binding protein 1 (Homo sapiens, UniProt P11940); test: blockers of PABP interaction with poly(A) – biochemical, fluorescence polarization, […] (AID 2014)
# [11] = biological target: DNA dC->dU-editing enzyme APOBEC-3A (Homo sapiens, UniProt P31941); test: Dose Response confirmation of small molecule APOBEC3A DNA Deaminase Inhibitors via a fluorescence-based single-stranded DNA deaminase assay. [Related pubchem assays (depositor defined):AID493011, AID493024]; format: functional
# [12] = biological target: T5, Eukaryotic translation initiation factor 4H; test: inhibitors of translation initiation factor eIF4H – SAR follow-up (AID 435011); format: functional
# [13] = biological target: T6, Polyadenylate-binding protein 1; test: PABP inhibition in translation initiation, SAR follow-up (AID 435018); format: functional
# T6 sequence (P11940 whole entry): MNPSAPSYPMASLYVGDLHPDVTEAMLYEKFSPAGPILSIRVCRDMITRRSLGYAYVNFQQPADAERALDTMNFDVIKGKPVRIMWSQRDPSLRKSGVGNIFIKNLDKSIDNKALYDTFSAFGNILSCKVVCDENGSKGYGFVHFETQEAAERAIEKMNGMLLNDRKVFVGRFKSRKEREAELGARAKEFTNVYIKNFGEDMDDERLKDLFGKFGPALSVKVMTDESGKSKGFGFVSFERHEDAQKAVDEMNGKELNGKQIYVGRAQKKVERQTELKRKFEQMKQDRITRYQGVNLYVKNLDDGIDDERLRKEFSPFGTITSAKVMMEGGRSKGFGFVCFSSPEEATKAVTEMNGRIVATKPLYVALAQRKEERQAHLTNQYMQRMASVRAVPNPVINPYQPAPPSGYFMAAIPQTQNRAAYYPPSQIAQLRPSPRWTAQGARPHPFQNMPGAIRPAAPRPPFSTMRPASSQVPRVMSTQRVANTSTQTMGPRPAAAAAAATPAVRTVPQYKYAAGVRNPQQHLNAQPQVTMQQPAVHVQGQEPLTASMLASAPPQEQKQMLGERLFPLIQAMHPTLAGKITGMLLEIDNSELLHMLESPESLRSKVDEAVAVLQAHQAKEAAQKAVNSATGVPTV
# DNA dC->dU-editing enzyme APOBEC-3A, sequence (P31941 whole entry): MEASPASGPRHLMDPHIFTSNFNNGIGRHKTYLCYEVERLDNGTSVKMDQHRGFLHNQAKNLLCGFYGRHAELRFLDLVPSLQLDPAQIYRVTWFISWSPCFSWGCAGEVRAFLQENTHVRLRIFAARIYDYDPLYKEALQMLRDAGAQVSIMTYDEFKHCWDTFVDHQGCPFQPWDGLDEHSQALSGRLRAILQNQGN
# Melanin-concentrating hormone receptor 1, sequence (Q99705 whole entry): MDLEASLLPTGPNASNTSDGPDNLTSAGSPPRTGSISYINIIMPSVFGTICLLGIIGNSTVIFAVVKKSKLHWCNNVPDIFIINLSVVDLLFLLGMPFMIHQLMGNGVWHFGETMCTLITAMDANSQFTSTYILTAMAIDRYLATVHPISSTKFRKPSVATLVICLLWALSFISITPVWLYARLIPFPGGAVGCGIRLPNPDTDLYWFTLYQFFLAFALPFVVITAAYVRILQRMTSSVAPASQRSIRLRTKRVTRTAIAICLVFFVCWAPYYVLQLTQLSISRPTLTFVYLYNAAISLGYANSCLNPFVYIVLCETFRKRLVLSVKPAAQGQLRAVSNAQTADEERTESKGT
# DNA dC->dU-editing enzyme APOBEC-3G, sequence (Q9HC16 whole entry): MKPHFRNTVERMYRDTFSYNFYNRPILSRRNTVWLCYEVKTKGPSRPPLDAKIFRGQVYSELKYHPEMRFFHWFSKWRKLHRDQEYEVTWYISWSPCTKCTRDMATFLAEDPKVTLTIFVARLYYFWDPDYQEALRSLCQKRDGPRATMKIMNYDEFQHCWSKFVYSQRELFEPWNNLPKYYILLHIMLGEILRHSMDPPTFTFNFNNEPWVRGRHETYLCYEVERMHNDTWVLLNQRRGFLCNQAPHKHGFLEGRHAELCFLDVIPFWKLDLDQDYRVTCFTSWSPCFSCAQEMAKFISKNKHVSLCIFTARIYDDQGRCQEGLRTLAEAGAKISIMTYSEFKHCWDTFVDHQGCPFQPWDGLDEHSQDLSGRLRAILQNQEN
smiles,measurement,setting,value
CCOC(=O)C(Cc1ccccc1)C(=O)Nc1ccc(N(CC)CC)cc1 (stereo not given),EC50,[1],12.4 µM (not active)
same,EC50,[2],5.4 µM (active)
same,IC50,[3],93.1 µM (active)
same,EC50,[4],7.05 µM (active)
same,IC50,HEK293,18.4 µM (not active)
same,EC50,[5],23.9 µM (not active)
COc1ccc(S(=O)(=O)N2CCC(C(=O)NCc3ccco3)CC2)cc1,IC50,[6],> 43.8 µM (not active)
same,IC50,[7],> 43.8 µM (not active)
CC1CCN(C(C(=O)Nc2ccc(C(C)C)cc2)c2ccc3c(c2)OCO3)CC1 (stereo not given),IC50,Staphylococcus aureus,717 nM (active)
Cc1ccc(NC(=O)C2CCN(C(=O)c3cccs3)CC2)c(C)c1,IC50,[8],> 100 µM (inactive)
same,IC50,[9],6.56 µM (active)
same,IC50,[10],6.51 µM (active)
same,IC50,[11],4.37 µM (active)
same,IC50,[12],47.6 µM (active)
same,IC50,[13],4.95 µM (active)
